Reference: US20230040247A1, “COMPOUNDS FOR TREATING NEURODEGENERATIVE DISEASES” (Amabiotics, priority 2019, published 2023)

Test system: endogenous a-synuclein phosphorylation at serine 129
Test: huPFFs-induced endogenous a-synuclein phosphorylation at serine 129 in primary cortical cultures (EP1536Y immunofluorescence)
Assay type: cell-based, mouse
Description: The study was designed to evaluate the effects of queuine in an in vitro cell-based experimental model of synucleinopathy. The study aimed to evaluate the impact of queuine on the experimental synucleinopathy, in particular of the Lewy body type, induced by exogenous human preformed a-synuclein fibrils (huPFFs) in cortical cultures of wild-type (WT) mice (Volpicelli-Daley et al. (2011) Neuron. 72:57-7).
Queuine was evaluated for its capability to afford protection against the induction of endogenous a-synuclein phosphorylation at serine 129 (a surrogate marker of de novo a-synuclein aggregation) triggered by exposure to exogenous human recombinant (unphosphorylated) a-synuclein preformed fibrils (huPFFs).
Primary cultures of dissociated cortices from embryonic day E18 WT mouse embryos were used as the biological system. Timed pregnant female mice were received from Charles River Laboratories 2 days before initiation of the primary culture. […] At 30 DIV, the neuronal cultures were fixed with PFA, and the effects of the treatments were evaluated by performing two double immunostainings: • (i) D37A6/Syn1 to detect total rodent a-synuclein/human plus rodent non aggregated a-synuclein; • (ii) EP1536Y/Syn211 to detect rodent and human a-synuclein phosphorylated at S129/total human a-synuclein.
The induction of a-synuclein phosphorylation was quantified by measuring the accumulation of phospho-a-synuclein (length of the phospho-a-synuclein-positive neurite network, number of phospho-a-synuclein positive cell bodies).
The experimental conditions were performed in quadruplicate (for compound-treated conditions+/−huPFFs) and triplicate (for controls+/−huPFFs) wells. An array of nine individual microscopic fields were acquired in each single well, and 3 channels were recorded for each field (green fluorescence excited @488 nm, red fluorescence excited @594 nm, and phase contrast). […]
To further evaluate the effects of queuine, the EP1536Y signal was segmented to quantify the phospho-a-synuclein positive neurites. […]

Substance: 7-(3,4-trans-4,5-cis-dihydroxy-1-cyclopenten-3-ylaminomethyl)-7-deazaguanine [queuine]
- effect on untreated neurones (induction of synuclein phosphorylation at S129) (WT mouse cortical neurones without huPFFs, concentration range tested (10 μM, 1 μM, 0.1 μM)): no effect
- EP1536Y immunofluorescence signal, representative of the phosphorylation of a-synuclein (WT mouse cortical neurons exposed to 10 nM huPFFs, queuine pretreatment at 100 nM compared to control (FIG. 1)): decreased
- decrease of a-synuclein phosphorylation at S129 induced by huPFFs (huPFFs-treated (10 nM) WT mouse cortical neurones, all doses tested (10 μM, 1 μM, 0.1 μM), normalised to huPFFs condition (FIG. 2), significant): approx. −50%
